# Earlier results, collected in patent publication US9580717B2, “Heterologous hosts” (priority 2009, dated 2017).
# Experiments:
# [1] = tested on: malignant mammalian cells
# [2] = tested on: tumour cell lines
# [3] = tested on: P388 leukaemia cells; conditions: mouse, in vivo
SMILES,cytopathic activity against malignant mammalian cells [1],cytotoxicity to tumour cell lines [2],lifespan of mice inoculated with P388 leukaemia cells [3]
C[C@H]1CCC(C2=C(CC(=O)NCC(=O)c3csc(C(=O)C(=O)c4csc(CNC(=O)CC5=C(C6=N[C@@H](C)CC6)C(=O)NC56CC6)n4)n3)C3(CC3)NC2=O)=N1 [Colibactin],cytopathic activity,,
CCCCCCC/C=C/C=C/C(=O)N[C@H](C(=O)N[C@H]1C[C@@H](O)CCNC(=O)/C=C/[C@H](C)NC1=O)[C@@H](C)O [Glidobactin A],,cytotoxic to tumour cell lines,can prolong the lifespan
